According to article PMC8161026, “Synthesis and Anticancer Activity Evaluation of 5-[2-Chloro-3-(4-nitrophenyl)-2-propenylidene]-4-thiazolidinones” (Molecules, 2021):

Tests used:
NCI-H23 = assay: cells; conditions: Homo sapiens, NCI-H23, 48 h; for CC50: read-out: LC50
UACC-62 = assay: NCI DTP 60 cell line screen, SRB; conditions: for GI50 / CC50: Homo sapiens, UACC-62, 48 h; for CC50: read-out: LC50; for TGI: UACC-62 (Melanoma), 48 h, SRB
UO-31 = assay: NCI DTP 60 cell line screen, SRB; conditions: for GI50 / CC50: Homo sapiens, UO-31, 48 h; for CC50: read-out: LC50; for TGI: UO-31 (Renal Cancer), 48 h, SRB
PC-3 = assay: cells; conditions: Homo sapiens, PC-3, 48 h; for CC50: read-out: LC50
HOP-92 = assay: NCI DTP 60 cell line screen, SRB; conditions: for TGI: HOP-92 (Non-Small Cell Lung Cancer), 48 h, SRB; for GI50 / CC50: Homo sapiens, HOP-92, 48 h; for CC50: read-out: LC50
MDA-MB-231/ATCC = assay: NCI DTP 60 cell line screen, SRB; conditions: for GI50 / CC50: Homo sapiens, MDA-MB-231, 48 h; for CC50: read-out: LC50; for TGI: MDA-MB-231/ATCC (Breast Cancer), 48 h, SRB
U251 [1] = conditions: U251 (CNS Cancer), 48 h, SRB
[2] = Lymphocyte viability, MTT assay; conditions: human
Description: (§1) Another part of our study was to determine the influence of compounds 2f, 2i, 2j, and 2h on normal human blood lymphocytes (Figure 5). […] Thus, normal blood lymphocytes are blood cells, as well as cells of leukemia cell lines, therapeutic index (TI) of compounds 2f, 2h, and 2j was calculated as GI50 (normal blood lymphocyte)/GI50 (leukemia cell line) (Table 5).
(§2) Figure 5 Human lymphocyte viability after 48 h of 2f, 2i, 2j, 2h, and Ciminalum drug exposure was estimated by MTT assay.
(§3) The assay was performed by using 3-(4,5-dimethylthiazole-2-yl)- 2,5-diphenyltetrazolium bromide (MTT). Confluent cells, cultured for 24 h with 0.1, 1, 5, 10, 20, 30, and 100 µM concentrations of studied compounds in 24-well plates were washed with PBS. MTT was dissolved in PBS, and 25 µL were added to each well. Plates were incubated for 4 h at 37 °C in 5% CO2 in an incubator. The medium with MTT was removed, and 1 mL of DMSO was added to the attached cells. Furthermore, cells were incubated for 5–10 min in RT and then 10 µl of Sorensen buffer was added to each well. The absorbance of converted dye in living cells was measured at a wavelength of 570 nm. The cell viability of breast cancer cells, gastric cancer cells, and human colon cancer cells cultured in the presence of ligands was calculated as percent of control cells.
(§4) First, 20 mL of venous blood was taken from volunteers (Ethical protocol number 2, 27 January 2019) and collected in the presence of 200 μL of undiluted fresh heparin (1/100). Sterile blood was diluted 2 times with 0.9% NaCl under the sterile conditions. Isolation of lymphocytes was performed in a density gradient of ficol-verografin using the protocol of the manufacturer (Lympoprep, NYCOMED PHARMA AS, Oslo Norway). The resulting lymphocytes were resuspended in the RPMI-1640 medium and cultured for several days (up to 10 days). To separate the lymphocytes from the monocytes, cell suspension was left for 24 h. After 24 h of culture, monocytes were attached, while lymphocytes were transferred to a fresh Falcon tube (15 mL). To stimulate the proliferation of lymphocytes, they were cultured on CD3+ antibody-coated plastic plate in the RPMI-1640 medium supplemented with 20% FBS.

[3] = tested on: normal human blood lymphocytes; assay: in vitro
Description: as §1, §2, §3, §4

K-562 = conditions: for TI (Therapeutic Index): GI50 (normal blood lymphocyte)/GI50 (K-562); for TGI: K-562 (Leukemia), 48 h, SRB
MOLT-4 = conditions: for TI (Therapeutic Index): GI50 (normal blood lymphocyte)/GI50 (MOLT-4); for TGI: MOLT-4 (Leukemia), 48 h, SRB
U251 [4] = assay: cells; conditions: Homo sapiens, U-251, 48 h; for CC50: read-out: LC50
A549/ATCC = A549/ATCC (Non-Small Cell Lung Cancer), 48 h, SRB
SK-MEL-28 = assay: cells; conditions: Homo sapiens, SK-MEL-28, 48 h; for CC50: read-out: LC50
SF-539 = assay: NCI DTP 60 cell line screen, SRB; conditions: for GI50 / CC50: Homo sapiens, SF-539, 48 h; for CC50: read-out: LC50; for TGI: SF-539 (CNS Cancer), 48 h, SRB
KM12 = assay: cells; conditions: Homo sapiens, KM12, 48 h; for CC50: read-out: LC50
NCI-H522 = assay: NCI DTP 60 cell line screen, SRB; conditions: for GI50 / CC50: Homo sapiens, NCI-H522, 48 h; for CC50: read-out: LC50; for TGI: NCI-H522 (Non-Small Cell Lung Cancer), 48 h, SRB
OVCAR-5 = assay: NCI DTP 60 cell line screen, SRB; conditions: for GI50 / CC50: Homo sapiens, OVCAR-5, 48 h; for CC50: read-out: LC50; for TGI: OVCAR-5 (Ovarian Cancer), 48 h, SRB

Row | SMILES | GI50 (NCI-H23) [µM] | CC50 (NCI-H23) [µM] | GI50 (UACC-62) [µM] | CC50 (UACC-62) [µM] | TGI (UACC-62) [µM] | GI50 (UO-31) [µM] | CC50 (UO-31) [µM] | TGI (UO-31) [µM] | GI50 (PC-3) [µM] | CC50 (PC-3) [µM] | GI50 (MDA-MB-231/ATCC) [µM] | CC50 (MDA-MB-231/ATCC) [µM] | TGI (MDA-MB-231/ATCC) [µM] | TGI (U251 [1]) [µM] | TGI (K-562) [µM] | TGI (MOLT-4) [µM] | GI50 (U251 [4]) [µM] | CC50 (U251 [4]) [µM] | TGI (A549/ATCC) [µM] | GI50 (SF-539) [µM] | also measured
1 | O=C(O)CCN1C(=O)/C(=C/C(Cl)=C/c2ccc([N+](=O)[O-])cc2)SC1=S [Compound 2h, 3-{5-[(Z,2Z)-2-Chloro-3-(4-nitrophenyl)-2-propenylidene]-4-oxo-2-thioxothiazolidin-3-yl}propanoic acid] | 1.44 | 7.19 | 1.23 | 7.18 | 2.97 | 0.812 | 6.31 | 2.43 | 0.712 | 41.9 | 1.08 | 25.9 | 4.86 | 2.00 | 2.83 | 19.7 | 0.149 | > 100 | 7.62 | < 0.01 | TGI (HOP-92): 18.3 µM; GI50 (HOP-92): 4.81 µM; CC50 (HOP-92): 50.7 µM; GI50 at 48 h [2]: 54.5 µM; toxicity toward normal human blood lymphocytes [3]: low toxicity; TI (Therapeutic Index) (K-562): 257.26; TI (Therapeutic Index) (MOLT-4): 3408.75; GI50 (SK-MEL-28): 3.59 µM; CC50 (SK-MEL-28): 89.5 µM; CC50 (SF-539): 25.8 µM; TGI (SF-539): 0.267 µM; GI50 (KM12): 0.639 µM; CC50 (KM12): > 100 µM
2 | O=C1/C(=C/C(Cl)=C/c2ccc([N+](=O)[O-])cc2)SC(=S)N1/N=C\C(Cl)=C\c1ccc([N+](=O)[O-])cc1 [Compound 2c, 5-[(Z,2Z)-2-Chloro-3-(4-nitrophenyl)-2-propenylidene]-3-[(Z,2Z)-2-chloro-3-(4-nitrophenyl)-2-propenylideneamino]-2-thioxo-4-thiazolidinone] | 16.6 | 60.3 | 13.6 | 58 | 28.1 | 17.5 | 59.1 | 32.2 | 8.1 | > 100 | 10 | > 100 | 35.4 | 24.5 | 25.5 | 8.95 | 8.03 | 65.8 | 42.6 | 25.9 | GI50 (NCI-H522): 16.3 µM; CC50 (NCI-H522): 66.2 µM; TGI (NCI-H522): 32.9 µM; GI50 (OVCAR-5): 15.1 µM; CC50 (OVCAR-5): 86.6 µM; TGI (OVCAR-5): 36.2 µM; CC50 (SF-539): > 100 µM; TGI (SF-539): 57.4 µM; GI50 (KM12): 20.6 µM; CC50 (KM12): > 100 µM
3 | O=C(O)C(Cc1ccccc1)N1C(=O)/C(=C/C(Cl)=C/c2ccc([N+](=O)[O-])cc2)SC1=S (centres unmarked) [Compound 2j, 2-{5-[(Z,2Z)-2-Chloro-3-(4-nitrophenyl)-2-propenylidene]-4-oxo-2-thioxothiazolidin-3-yl}-3-phenylpropanoic acid] | 2.13 | > 100 | 2 | 30.2 | 4.85 | 1.59 | 6.05 | 3.10 | 2.53 | > 100 | 3.35 | > 100 | > 100 | 3.52 | > 100 | > 100 | 1.72 | 7.21 | > 100 | 2.74 | TGI (HOP-92): 5.71 µM; GI50 (HOP-92): 2.36 µM; CC50 (HOP-92): > 100 µM; GI50 (NCI-H522): 1.72 µM; CC50 (NCI-H522): 29.5 µM; TGI (NCI-H522): 4.47 µM; GI50 at 48 h [2]: 49 µM; toxicity toward normal human blood lymphocytes [3]: low toxicity; TI (Therapeutic Index) (K-562): 16.27; TI (Therapeutic Index) (MOLT-4): 15.59; GI50 (OVCAR-5): 2.82 µM; CC50 (OVCAR-5): > 100 µM; TGI (OVCAR-5): 7.91 µM; GI50 (SK-MEL-28): 2.16 µM; CC50 (SK-MEL-28): 11.6 µM; CC50 (SF-539): > 100 µM; TGI (SF-539): > 100 µM; GI50 (KM12): 2.06 µM; CC50 (KM12): 9.16 µM
4 | O=C1NC(=S)S/C1=C\C(Cl)=C\c1ccc([N+](=O)[O-])cc1 [Compound 2b, 5-[(Z,2Z)-2-Chloro-3-(4-nitrophenyl)-2-propenylidene]-2-thioxo-4-thiazolidinone] | 3.27 | 45.5 | 5.75 | 27.2 | 12.5 | 4.12 | > 50 | 21.8 | 4.68 | > 50 | 8.16 | > 50 | 28.1 | 9.73 | 42.5 | 14.2 | 3.09 | 22.1 | > 50 | 9.39 | TGI (HOP-92): > 50 µM; GI50 (HOP-92): 8.48 µM; CC50 (HOP-92): > 50 µM; GI50 (NCI-H522): 3.19 µM; CC50 (NCI-H522): 42.3 µM; TGI (NCI-H522): 13.1 µM; GI50 (OVCAR-5): 11.1 µM; CC50 (OVCAR-5): 32.4 µM; TGI (OVCAR-5): 19.5 µM; GI50 (SK-MEL-28): 5.87 µM; CC50 (SK-MEL-28): 25.9 µM; CC50 (SF-539): > 50 µM; TGI (SF-539): 23.1 µM; GI50 (KM12): 5.27 µM; CC50 (KM12): 40.4 µM
5 | O=C1/C(=C/C(Cl)=C/c2ccc([N+](=O)[O-])cc2)SC(=S)N1c1ccc(O)cc1 [Compound 2f, 5-[(Z,2Z)-2-Chloro-3-(4-nitrophenyl)-2-propenylidene]-3-(4-hydroxyphenyl)-2-thioxo-4-thiazolidinone] | 1.48 | 6.52 | 1.69 | 8.78 | 3.85 | 2.08 | > 100 | 3.98 | 2.29 | > 100 | 2.18 | 92.1 | 12.2 | 3.06 | > 100 | > 100 | 0.368 | 38.9 | 6.47 | 0.0252 | TGI (HOP-92): 39.4 µM; GI50 (HOP-92): 8.53 µM; CC50 (HOP-92): > 100 µM; GI50 at 48 h [2]: > 100 µM; toxicity toward normal human blood lymphocytes [3]: low toxicity; TI (Therapeutic Index) (K-562): >191.94; TI (Therapeutic Index) (MOLT-4): >257.07; GI50 (SK-MEL-28): 4.49 µM; CC50 (SK-MEL-28): > 100 µM; CC50 (SF-539): 28.1 µM; TGI (SF-539): 0.242 µM; GI50 (KM12): 2.85 µM; CC50 (KM12): > 100 µM
